8 compounds from patent publication US9708314B2, “Heterocyclic amide compound” (NISSAN CHEMICAL INDUSTRIES, LTD., priority 2013, dated 2017) can be followed below.

Common to all, as to type: in vivo
One data set relates to Monochoria vaginalis. Kind of data set: Test Example 2: herbicidal activity, application during weed generation in submerged conditions. Conditions: Eighteenth Table; application herbicide amount 320 g/ha. The method, boiled down: (§1)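 Seeds were sown together in alluvial soil kept under 4 cm of water and grown at 25 °C to 30 °C. Once plants reached the one- to two-leaf stage, the diluted emulsion was applied to the water surface at a predetermined g/ha amount, and effects were rated 0–5 after three weeks.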

A further data set deals with Scirpus juncoides. Described as above. Conditions: Eighteenth Table; application herbicide amount 320 g/ha. The method, boiled down: as §1
The subject of data set [1] is directly sowed Oryza sativa. Kind of data set: Test Example 3: effect on crop by application to foliage (Wagner pot, water depth 0.1-0.5 cm). Conditions: Nineteenth Table; application to foliage; application herbicide amount 320 g/ha. The method, boiled down: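 Scores (0–5) reflect herbicidal ratio three weeks after a foliar spray: 0 is 5% or less, 5 is 90% or more. Plants had grown 14 days in alluvial soil pots in a 25–30 °C greenhouse before treatment with water-diluted emulsion at a set g/ha.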

Data set [2] deals with Beta vulgaris ssp. vulgaris. Kind of data set: Test Example 4: effect on crop by application to foliage (diluvial soil, plastic box). Conditions: for f / f (Beta vulgaris ssp. vulgaris) effect on crop grade: Application herbicide amount 320 g/ha; for f: effect on crop; for f (Beta vulgaris ssp. vulgaris) effect on crop grade: foliage application; for f: effect on crop, Beta vulgaris ssp. vulgaris: application to foliage, application herbicide amount 320 g/ha. The method, boiled down:
(§2)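 Greenhouse plants (25° C. to 30° C., 14 d, diluvial soil) receive a foliar spray of water-diluted emulsifiable formulation at defined g/ha. Grading after 3 weeks uses a six-step herbicidal-ratio scale, with 4 covering 70% to <90% and 1 covering 5% to <20%.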

In another data set the test system is Brassica campestris L. The description is as above. The following applies: for g / g (Brassica campestris L.) effect on crop grade: Application herbicide amount 320 g/ha; for g: effect on crop; for g (Brassica campestris L.) effect on crop grade: foliage application; for g: effect on crop, Brassica campestris L.: application to foliage, application herbicide amount 320 g/ha. The method, boiled down:
as §2

For the next data set, the system named is Glycine max. The description is as above. The following applies: for c / d (Glycine max) effect on crop grade: Application herbicide amount 320 g/ha; for c: effect on crop; for d (Glycine max) effect on crop grade: foliage application; for d: effect on crop, Glycine max: application to foliage, application herbicide amount 320 g/ha. The method, boiled down:
as §2

A further data set has as its system Triticum aestivum. The description is as above. Conditions: for e / e (Triticum aestivum) effect on crop grade: Application herbicide amount 320 g/ha; for e: effect on crop; for e (Triticum aestivum) effect on crop grade: foliage application; for e: effect on crop, Triticum aestivum: application to foliage, application herbicide amount 320 g/ha. The method, boiled down:
as §2

In a further data set the test system is Zea mays. Described as above. Conditions: for b / c (Zea mays) effect on crop grade: Application herbicide amount 320 g/ha; for b: effect on crop; for c (Zea mays) effect on crop grade: foliage application; for c: effect on crop, Zea mays: application to foliage, application herbicide amount 320 g/ha. The method, boiled down:
as §2

Data set [3] relates to directly sowed Oryza sativa. Described as above. The following applies: for d / b (directly sowed Oryza sativa) effect on crop grade: Application herbicide amount 320 g/ha; for d: effect on crop; for b (directly sowed Oryza sativa) effect on crop grade: foliage application; for b: effect on crop, directly sowed Oryza sativa: application to foliage, application herbicide amount 320 g/ha. The method, boiled down: as §2

Turning to `Cc1nnc(NC(=O)c2ccc(C(F)(F)F)n3c(CC4CC4)nnc23)o1` [1-104], the “C (Monochoria vaginalis) herbicidal ratio grade” value with Monochoria vaginalis was 3 (Herbicidal ratio of 40% or more and less than 70%). For the same compound, in the data set on Scirpus juncoides, the “B (Scirpus juncoides) herbicidal ratio grade” value is 3 (Herbicidal ratio of 40% or more and less than 70%). Moreover, in data set [1], the “b (effect on crop grade)” value is 0 (Herbicidal ratio of 5% or less (almost no effect)). Besides, in data set [2], the f is 4 (Herbicidal ratio of 70% or more and less than 90%). For the same compound, the g with Brassica campestris L. was 4 (Herbicidal ratio of 70% or more and less than 90%). In the data set with Glycine max, the c is 3 (Herbicidal ratio of 40% or more and less than 70%). Further, in the data set on Triticum aestivum, the e was 2 (Herbicidal ratio of 20% or more and less than 40%). For the same compound, the b with Zea mays is 0 (Herbicidal ratio of 5% or less (almost no effect)). In addition, in data set [3], the d was 4 (Herbicidal ratio of 70% or more and less than 90%).
`CCCSc1nnc2c(C(=O)Nc3nnco3)ccc(C(F)(F)F)n12` [1-108]: in the data set on Monochoria vaginalis, the “C (Monochoria vaginalis) herbicidal ratio grade” value was 3 (Herbicidal ratio of 40% or more and less than 70%). In the data set on Scirpus juncoides, the “B (Scirpus juncoides) herbicidal ratio grade” value was 4 (Herbicidal ratio of 70% or more and less than 90%). In [1], the “b (effect on crop grade)” value was 1 (Herbicidal ratio of 5% or more and less than 20%). For the same compound, in data set [2], the “f (Beta vulgaris ssp. vulgaris) effect on crop grade” value is 5 (Herbicidal ratio of 90% or more (almost completely withered)). Also, the “g (Brassica campestris L.) effect on crop grade” value in the data set with Brassica campestris L. was 3 (Herbicidal ratio of 40% or more and less than 70%). For the same compound, the “d (Glycine max) effect on crop grade” value in the data set on Glycine max was 4 (Herbicidal ratio of 70% or more and less than 90%). Besides, in the data set with Triticum aestivum, the “e (Triticum aestivum) effect on crop grade” value (shortened to “e (Triticum aestivum) effect”) was 1 (Herbicidal ratio of 5% or more and less than 20%). Further, the “c (Zea mays) effect on crop grade” value with Zea mays was 1 (Herbicidal ratio of 5% or more and less than 20%). The “b (directly sowed Oryza sativa) effect on crop grade” value in data set [3] was 1 (Herbicidal ratio of 5% or more and less than 20%).
`CC(=O)OCc1nnc2c(C(=O)Nc3nnc(C)o3)ccc(C(F)(F)F)n12` [1-062]: the “C (Monochoria vaginalis) herbicidal ratio grade” value with Monochoria vaginalis is 2 (Herbicidal ratio of 20% or more and less than 40%). Moreover, the “B (Scirpus juncoides) herbicidal ratio grade” value in the data set on Scirpus juncoides was 2 (Herbicidal ratio of 20% or more and less than 40%). Also, the “b (effect on crop grade)” value in data set [1] was 2 (Herbicidal ratio of 20% or more and less than 40%). Besides, the f in [2] was 4 (Herbicidal ratio of 70% or more and less than 90%). In the data set on Brassica campestris L., the g was 4 (Herbicidal ratio of 70% or more and less than 90%). In the data set with Glycine max, the c is given as 0 (Herbicidal ratio of 5% or less (almost no effect)). Further, the e with Triticum aestivum was 2 (Herbicidal ratio of 20% or more and less than 40%). The b with Zea mays is 3 (Herbicidal ratio of 40% or more and less than 70%). In data set [3], the d was 3 (Herbicidal ratio of 40% or more and less than 70%).
In the case of `CCOc1nnc2c(C(=O)Nc3nnco3)ccc(C(F)(F)F)n12` [1-112], the “C (Monochoria vaginalis) herbicidal ratio grade” value with Monochoria vaginalis was 0 (Herbicidal ratio of 5% or less (almost no effect)). Also, the “B (Scirpus juncoides) herbicidal ratio grade” value with Scirpus juncoides was 2 (Herbicidal ratio of 20% or more and less than 40%). In [1], the “b (effect on crop grade)” value is given as 0 (Herbicidal ratio of 5% or less (almost no effect)). Besides, in data set [2], the “f (Beta vulgaris ssp. vulgaris) effect on crop grade” value is recorded as 5 (Herbicidal ratio of 90% or more (almost completely withered)). Further, in the data set with Brassica campestris L., the “g (Brassica campestris L.) effect on crop grade” value is 3 (Herbicidal ratio of 40% or more and less than 70%). Also, in the data set with Glycine max, the “d (Glycine max) effect on crop grade” value was 3 (Herbicidal ratio of 40% or more and less than 70%). The “e (Triticum aestivum) effect” value in the data set on Triticum aestivum is on record as 0 (Herbicidal ratio of 5% or less (almost no effect)). In the data set on Zea mays, the “c (Zea mays) effect on crop grade” value is 0 (Herbicidal ratio of 5% or less (almost no effect)). In data set [3], the “b (directly sowed Oryza sativa) effect on crop grade” value is 0 (Herbicidal ratio of 5% or less (almost no effect)).
In the case of `Cc1nnc(NC(=O)c2ccc(C(F)(F)F)n3c(C4(C)CC4(Cl)Cl)nnc23)o1` (stereo not drawn) [1-105], the “C (Monochoria vaginalis) herbicidal ratio grade” value in the data set with Monochoria vaginalis was 3 (Herbicidal ratio of 40% or more and less than 70%). For the same compound, the “B (Scirpus juncoides) herbicidal ratio grade” value in the data set with Scirpus juncoides is 4 (Herbicidal ratio of 70% or more and less than 90%). Also, the “b (effect on crop grade)” value in data set [1] is 0 (Herbicidal ratio of 5% or less (almost no effect)). Moreover, in data set [2], the “f (Beta vulgaris ssp. vulgaris) effect on crop grade” value is 4 (Herbicidal ratio of 70% or more and less than 90%). Further, the “g (Brassica campestris L.) effect on crop grade” value with Brassica campestris L. was 3 (Herbicidal ratio of 40% or more and less than 70%). In addition, the “d (Glycine max) effect on crop grade” value in the data set on Glycine max was 2 (Herbicidal ratio of 20% or more and less than 40%). Further, in the data set with Triticum aestivum, the “e (Triticum aestivum) effect” value was 1 (Herbicidal ratio of 5% or more and less than 20%). In the data set with Zea mays, the “c (Zea mays) effect on crop grade” value was 1 (Herbicidal ratio of 5% or more and less than 20%). For the same compound, in data set [3], the “b (directly sowed Oryza sativa) effect on crop grade” value was 0 (Herbicidal ratio of 5% or less (almost no effect)).
Turning to `CSc1nnc2c(C(=O)Nc3nnnn3C)ccc(C(F)(F)F)n12` [2-013], in the data set on Monochoria vaginalis, the “C (Monochoria vaginalis) herbicidal ratio grade” value was 2 (Herbicidal ratio of 20% or more and less than 40%). Besides, the “B (Scirpus juncoides) herbicidal ratio grade” value in the data set with Scirpus juncoides was 3 (Herbicidal ratio of 40% or more and less than 70%). Further, in [1], the “b (effect on crop grade)” value is 5 (Herbicidal ratio of 90% or more (almost completely withered)). Besides, the “f: effect on crop, Beta vulgaris ssp. vulgaris” value in data set [2] is 5 (Herbicidal ratio of 90% or more (almost completely withered)). In addition, in the data set on Brassica campestris L., the “g: effect on crop, Brassica campestris L.” value is 4 (Herbicidal ratio of 70% or more and less than 90%). Further, in the data set on Glycine max, the “d: effect on crop, Glycine max” value is 4 (Herbicidal ratio of 70% or more and less than 90%). The “e: effect on crop, Triticum aestivum” value in the data set on Triticum aestivum was 4 (Herbicidal ratio of 70% or more and less than 90%). Also, the “c: effect on crop, Zea mays” value in the data set on Zea mays is 3 (Herbicidal ratio of 40% or more and less than 70%). In addition, the “b: effect on crop, directly sowed Oryza sativa” value in data set [3] was 5 (Herbicidal ratio of 90% or more (almost completely withered)).
As to `COCCOC(=O)Cc1nnc2c(C(=O)Nc3nnc(C)o3)ccc(C(F)(F)F)n12` [1-060], the “C (Monochoria vaginalis) herbicidal ratio grade” value in the data set on Monochoria vaginalis was 2 (Herbicidal ratio of 20% or more and less than 40%). For the same compound, in the data set with Scirpus juncoides, the “B (Scirpus juncoides) herbicidal ratio grade” value is 3 (Herbicidal ratio of 40% or more and less than 70%). For the same compound, in data set [1], the “b (effect on crop grade)” value is 2 (Herbicidal ratio of 20% or more and less than 40%). The f in [2] is given as 5 (Herbicidal ratio of 90% or more (almost completely withered)). For the same compound, the g in the data set on Brassica campestris L. was 4 (Herbicidal ratio of 70% or more and less than 90%). Also, the c in the data set on Glycine max was 0 (Herbicidal ratio of 5% or less (almost no effect)). In addition, in the data set on Triticum aestivum, the e is 3 (Herbicidal ratio of 40% or more and less than 70%). For the same compound, the b in the data set with Zea mays is 3 (Herbicidal ratio of 40% or more and less than 70%). Further, in data set [3], the d was 4 (Herbicidal ratio of 70% or more and less than 90%).
As for `Cn1nnnc1NC(=O)c1ccc(C(F)(F)F)n2c(-c3ccc(Cl)cc3)nnc12` [2-012], the “C (Monochoria vaginalis) herbicidal ratio grade” value in the data set on Monochoria vaginalis is 5 (Herbicidal ratio of 90% or more (almost completely withered)). Further, the “B (Scirpus juncoides) herbicidal ratio grade” value with Scirpus juncoides is given as 5 (Herbicidal ratio of 90% or more (almost completely withered)). Further, in data set [1], the “b (effect on crop grade)” value is 2 (Herbicidal ratio of 20% or more and less than 40%). The “f: effect on crop, Beta vulgaris ssp. vulgaris” value in data set [2] is given as 5 (Herbicidal ratio of 90% or more (almost completely withered)). The “g: effect on crop, Brassica campestris L.” value in the data set with Brassica campestris L. was 4 (Herbicidal ratio of 70% or more and less than 90%). Further, the “d: effect on crop, Glycine max” value in the data set with Glycine max was 4 (Herbicidal ratio of 70% or more and less than 90%). Besides, the “e: effect on crop, Triticum aestivum” value in the data set with Triticum aestivum is 4 (Herbicidal ratio of 70% or more and less than 90%). In addition, in the data set with Zea mays, the “c: effect on crop, Zea mays” value was 3 (Herbicidal ratio of 40% or more and less than 70%). Moreover, the “b: effect on crop, directly sowed Oryza sativa” value in data set [3] was 5 (Herbicidal ratio of 90% or more (almost completely withered)).
